Test results taken from patent publication US6762176B1, “2-aminopyridine derivatives, their use as medicines and pharmaceutical compositions containing them” (Societe de Consells de Recherches et D'Applications …, priority 1998, dated 2004).
Structures can show the parent of a compound that is named as a salt.

| melting point | Structure (SMILES) |
| --- | --- |
| 163 to 165 °C | Cc1cc(N)nc(CCCCNC/C=C/c2ccccc2)c1.O=C(O)/C=C/C(=O)O [Example 30, N-[4-(6-amino-4-methyl-2-pyridinyl)butyl]-N-[(E)-3-phenyl-2-propenyl]amine fumarate] |
| 224 to 226 °C | Cc1cc(N)nc(CCCCNCc2ccc3c(c2)OCO3)c1.O=C(O)/C=C/C(=O)O [Example 29, N-[4-(6-amino-4-methyl-2-pyridinyl)butyl]-N-(1,3-benzodioxole-5-ylmethyl)amine fumarate] |
| 221 to 223 °C | Cc1c(C)c2c(c(C)c1O)CCC(C)(C(=O)N1CCN(CCCCc3ccc(N)nc3)CC1)O2.Cl (centres unmarked) |

The remaining lines, values behind:

| Structure (SMILES) | melting point |
| --- | --- |
| Cc1cc(N)nc(CCCCNC(=O)/C=C/c2ccc3c(c2)OCO3)c1.O=C(O)/C=C/C(=O)O [Example 31, (E)-N-[4-(6-amino-4-methyl-2-pyridinyl)butyl]-3-(1,3-benzodioxole-5-yl)-2-propenamide fumarate] | 111 to 113 °C |
| Cc1cc(N)nc(CCCCNC(=O)c2ccc3c(c2)OCO3)c1.Cl [Example 23, N-[(6-amino-4-methyl-2-pyridinyl)butyl]-1,3-benzodioxole-5-carboxamide hydrochloride] | 176 to 178 °C |
| Cc1cc(N)nc(CCCCNC(=O)C2(C)CCc3c(C)c(O)c(C)c(C)c3O2)c1.O=C(O)/C=C/C(=O)O (centres unmarked) | 131 to 136 °C |
| Cc1c(C)c2c(c(C)c1O)CCC(C)(C(=O)N1CCN(CCC#Cc3ccc(N)nc3)CC1)O2.Cl (centres unmarked) | 210 to 212 °C |
| COc1cc(C=CCNCCCCc2cc(C)cc(N)n2)ccc1O (as salt: hydrochloride) [Example 26, 6-amino-N-[13-(4-hydroxy-3-metboxy-phenyl)-2-propenyl]4-methyl-2-pyridinebutanamine hydrochloride] | 60 to 62 °C |
